Reference: PMC1906830, “In vivo optical imaging of integrin αV-β3 in mice using multivalent or monovalent cRGD targeting vectors” (Molecular Cancer, 2007)

What was measured:
[1] = system: HEK293(β1) cells (αVβ3-negative); assay: In vitro binding of Cy5-labeled peptides, confocal laser scanning microscopy; assay type: cell-based, human; conditions: 0.1 μM Cy5-labeled peptide, 30 min, 37°C, result in words
Procedure: (§1) Cells were seeded on sterilized 18-mm-diameter glass coverslips in 12-well plates (3 × 10^5 cells per well), and incubated overnight at 37°C. […] They were then washed with PBS, fixed with 2% paraformaldehyde at room temperature for 10 min. The nuclei were stained with 5 μM Hoechst 33342, and the coverslips were inverted onto glass slides using Mowiol (Calbiochem, San Diego, CA) mounting medium.

[2] = system: HEK293(β3) cells (high levels of αVβ3); assay: as above; assay type: cell-based, human; conditions: 0.1 μM Cy5-labeled peptide, 30 min, 37°C, result in words
Procedure: as §1

HEK293(β3) s.c. tumors [3] = assay: Whole body in vivo optical imaging (fluorescence reflectance) of tumor-bearing mice; set-up: species or system Swiss nude mice
HEK293(β3) s.c. tumors [4] = assay: Histological distribution of RGD-peptides in excised tumors (CLSM); assay type: in vivo, Swiss nude mice; conditions: HEK293(β3) s.c. tumor excised 3 hr after 10 nmol i.v., cryosections
Procedure: Sections of 20–30 μm thickness were fixed with 2% paraformaldehyde at room temperature for 10 min. The nuclei were stained with 5 μM Hoechst 33342, and the coverslips were mounted using Mowiol and kept at 4°C in the dark until observation using CLSM.

**Q.** “Cy5-RAFT-c(-RGDfK-)4 (bicyclic or more) [Cy5-labeled tetramer: four c[-RGDfK-] grafted via oxime bond on RAFT cyclic decapeptide, Cy5 on the opposite side lysine]” was tested. Which “binding to HEK293(β1) cells (CLSM)” value [1] did it give?
**A.** The value was “none of these peptides bound”.

**Q.** What about the “binding to HEK293(β3) cells (CLSM)” value [2] of the same substance?
**A.** Its value is “very strongly”.

**Q.** And the “tumor contrast (T/S ratio, tumor vs. skin)” value (HEK293(β3) s.c. tumors [3]; HEK293(β3) s.c. tumor, 10 nmol i.v., 4 hr p.i., mean ± SD, n = 3–4)?
**A.** The value was 15.9 ± 3.6.

**Q.** What about the “renal uptake” value (HEK293(β3) s.c. tumors [3]; i.v. injection, tumor-bearing or normal mice, not modified by excess of unlabeled tetramer or monomer) of the same substance?
**A.** The value was “higher renal uptake than Cy5-cRGD”.

**Q.** What about the tumor/skin ratio (HEK293(β3) s.c. tumors [3]; intravenous injection, HEK293(β3) tumors, time not stated (abstract)) of the same substance?
**A.** Its tumor/skin ratio is “above 15”.

**Q.** And the “distribution / internalization in tumor cells of excised tumors (CLSM, words)” value (HEK293(β3) s.c. tumors [4])?
**A.** The value was “massively internalized by tumor cells”.
